In ChEMBL document CHEMBL5143614, “Structure-activity relationship of 2-aminodibenzothiophene pharmacophore and the discovery of aminobenzothiophenes as potent inhibitors of Mycobacterium smegmatis” (Bioorg Med Chem Lett, 2022):
≈ marks a conversion by molar mass, not a printed value.

How the values were obtained:
[1] = tested on: Mycobacterium tuberculosis; experiment: Antitubercular activity against Mycobacterium tuberculosis H37Rv; format: functional
RWPE-1 = experiment: Cytotoxicity against human RWPE-1 cells assessed as cell viability at 50 ug/ml after 72 hrs by MTT assay; format: toxicity, cell-based; conditions: rwpe-1, 72 h, dose 50 µg/ml
[2] = tested on: Mycolicibacterium smegmatis; experiment: Antitubercular activity against Mycobacterium smegmatis ATCC 700084 after 48 hrs by microdilution assay; format: functional

SMILES | MIC [1] [µg/mL] | Activity (RWPE-1) | MIC [2] [µg/mL]
Nc1ccc2oc3ccccc3c2c1 | 64 (≈ 349 µM) | Toxic | 3.13 (≈ 17.1 µM)
Nc1ccc2[nH]ccc2c1 | – | – | > 100
Nc1ccc2c(c1)-c1ccccc1S2(=O)=O | – | – | > 100
CCCCCCNc1ccc2sc3ccccc3c2c1 | – | – | > 100
c1ccc2c(c1)sc1ccc(N3CCOCC3)cc12 | – | – | > 100
Nc1ccc2sc3ccccc3c2c1 | 128 (≈ 642 µM) | Toxic | 3.13 (≈ 15.7 µM)
c1ccc2c(c1)CCN2c1ccc2sc3ccccc3c2c1 | – | – | > 100
O=S(=O)(Nc1ccc2sc3ccccc3c2c1)c1ccccc1 | – | – | > 100
Nc1ccc2ccsc2c1 | – | Toxic | 0.78 (≈ 5.23 µM)
Nc1ccc2[nH]c3ccccc3c2c1 | 16 (≈ 87.8 µM) | – | > 100
c1ccc2c(c1)CCCN2c1ccc2sc3ccccc3c2c1 | – | – | > 100
CCNc1ccc2sc3ccccc3c2c1 | – | – | > 100
Nc1ccc2sccc2c1 | – | Toxic | 0.78 (≈ 5.23 µM)
Nc1ccc2occc2c1 | – | Toxic | 1.56 (≈ 11.7 µM)
CN(c1ccccc1)c1ccc2sc3ccccc3c2c1 | – | – | > 100
Nc1ccc2c(c1)-c1cc(N)ccc1S2(=O)=O | < 2 | – | > 100
c1ccc(Nc2ccc3sc4ccccc4c3c2)cc1 | – | – | > 100
Nc1cccc2c1sc1ccccc12 | – | – | 12.5 (≈ 62.7 µM)
OB(O)c1ccc2sc3ccccc3c2c1 | – | – | 50 (≈ 219 µM)
CCN(CC)c1ccc2sc3ccccc3c2c1 | – | – | > 100
c1ccc2c(c1)sc1ccc(N3CCCC3)cc12 | – | – | > 100
Nc1cccc2sccc12 | – | – | 50 (≈ 335 µM)
OB(O)c1cccc2c1sc1ccccc12 | – | – | > 100
c1ccc2c(c1)sc1ccc(NC3CCCCC3)cc12 | – | – | > 100
c1ccc2c(c1)sc1ccc(-n3cccc3)cc12 | – | – | > 100
Nc1ccc2c(c1)-c1ccccc1C2 | 32 (≈ 177 µM) | – | 25 (≈ 138 µM)
Nc1ccc2sc3ccc(N)cc3c2c1 | – | – | > 100
NNC(=O)c1ccncc1 [ISONIAZID] | – | – | 3.13 (≈ 22.8 µM)
